Laboratory results: patent publication US20260199464A1, “COMPOSITIONS AND METHODS FOR ENHANCING CAR-T CELL PERFORMANCE AND FOR CANCER IMMUNOTHERAPY” (The Regents of the University of California, priority 2022, published 2026)

How the values were obtained:
MC38-GP33-41 tumors = assay: ZAA treatment of mice implanted with MC38-GP33-41 tumors, with or without CD8 T cell depletion; type: in vivo
Excerpt: (§1) For adoptive therapy experiments, 5×10^5 B16-GP33-41 cells or MC38-GP33-41, which were verified Mycoplasma negative by PCR, and authenticated by in vitro killing assays, were transplanted subcutaneously into the right flank of wild-type B6 mice. After tumors became palpable, 7-8 days after transplantation, in vitro activated and expanded P14 CD8 T cells were transferred intravenously. For comparison of TIL accumulation in a mixed transfer setting, naive P14 CD8 T cells were activated, transduced and expanded with 50 U/mL of hIL-2 for 2-3 days; cells transduced with control constructs (Cd19 shRNAmir) or experimental constructs (Srebf2 shRNAmir) were mixed 1:1 and 1×10^6 P14 cells were transferred intravenously. For efficacy studies, transduced cells were expanded for 5-6 days; transduced cells were then sorted, and 1×10^6-2.5×10^6 cells were transferred intravenously into mice with established MC38-GP33-41 or B16-GP33-41 tumors. Tumors were monitored daily, and mice with ulcerated tumors or tumors exceeding 400 mm^2 were euthanized, in accordance with Univ. Calif. San Diego (UCSD) Institutional Animal Care and Use Committee (IACUC).
At day 6 after tumor injection, the mice were randomized and treated every other day with ZAA (Santa Cruz Biotechnology) or vehicle control by alternating intravenous ([…]) and intraperitoneal ([…]) injections until day 16. For combination therapy with anti-PD1 (programmed cell death protein 1 (PD-1)) antibody, ZAA was administered with the same schedule, and three consecutive treatments of anti-PD1 (InVivoMab anti-mouse PD-1 (CD279), BioXCell, BE0033-2) at 200 μg/mouse were delivered IP on days 9, 10, and 11 after tumor injection. Isotype control for Syrian IgG was used (InVivoMAb polyclonal Syrian hamster IgG, BioXCell). […]

[1] = system: B16-GP33-41 melanoma tumors; assay: ZAA combined with anti-PD-1 in B16-GP33-41 melanoma tumors; type: in vivo, mice; conditions: ZAA combined with anti-PD-1 treatment
Excerpt: as §1
At day 6 after tumor injection, the mice were randomized and treated every other day with ZAA (Santa Cruz Biotechnology) or vehicle control by alternating intravenous ([…]) and intraperitoneal ([…]) injections until day 16. […]

B16-F10 tumors = assay: ZAA combined with anti-PD1 antibody, B16-F10 tumors implanted s.c. in B6 mice (FIG. 7, FIG. 8); type: in vivo
Procedure: FIG. 7 graphically illustrates data showing that tumor Growth Curves in B16-F10 tumors implanted subcutaneously (s.c.) in B6 mice. Tumor-bearing mice were treated with a combination of Zaragozic Acid A and anti-PD1 antibody.
FIG. 8 graphically illustrates data showing that ZAA synergizes with anti-PD1 therapy. Tumor-bearing mice were treated with a combination of Zaragozic Acid A and anti-PD1 antibody.
At day 6 after tumor injection, the mice were randomized and treated every other day with ZAA (Santa Cruz Biotechnology) or vehicle control by alternating intravenous ([…]) and intraperitoneal ([…]) injections until day 16. For combination therapy with anti-PD1 (programmed cell death protein 1 (PD-1)) antibody, ZAA was administered with the same schedule, and three consecutive treatments of anti-PD1 (InVivoMab anti-mouse PD-1 (CD279), BioXCell, BE0033-2) at 200 μg/mouse were delivered IP on days 9, 10, and 11 after tumor injection. Isotype control for Syrian IgG was used (InVivoMAb polyclonal Syrian hamster IgG, BioXCell). For CD8-depleting experiments in combination with ZAA, anti-CD8a Ab (2.43 BioXCell) was administered intraperitoneally at a dose of 200 μg/mouse starting 2 days prior to tumor implantation for three consecutive days (−2, −1, 0), followed by 2 additional doses of 100 μg/mouse on days 4 and 8, and ZAA treatment scheduled was started at day 4 after tumor implantation. Isotype control for Rat IgG2 was used (InVivoMAb rat IgG2a isotype control, anti-trinitrophenol, BioXCell).

CD19 CAR T cell = assay: ZAA combined with CD19 CAR T cell treatment of established solid tumors (FIG. 9); type: in vivo, mice
Excerpt: FIG. 9 graphically illustrates data showing that ZAA can be combined with CAR T cell treatment of established solid tumors to increase the ability of CAR T cells to accumulate intratumorally. Tumor-bearing mice received tumor-specific CAR T cells in combination with Zaragozic Acid A. Tumor cells contained the surface protein CD19, which is recognized by the CAR anti-CD19 on the CD8 T cell (CD19 CAR T cell).

[2] = Dependence of antitumor actions of ZAA on the immune system (FIG. 6); type: in vivo
P14 CD8 T cells = type: in vivo, mice
[3] = ZAA vs vehicle, MC38-GP33-41 tumors
[4] = combination of Zaragozic Acid A and anti-PD1 antibody, B16-F10 s.c.

SMILES	dependence of the antitumor effect on CD8 T cells (MC38-GP33-41 tumors; ZAA in combination with CD8 T cell depletion)	survival of mice (MC38-GP33-41 tumors; [3])	tumor growth (MC38-GP33-41 tumors; [3])	control of B16-GP33-41 melanoma tumors [1]	interaction with anti-PD1 therapy (B16-F10 tumors; FIG. 8, independent tumor growth curves from FIG. 7)	treatment of established tumors, efficacy of the combination (B16-F10 tumors; [4])	treatment of established tumors, safety of the combination (B16-F10 tumors; [4])	interaction with CD19 CAR T cell therapy (CD19 CAR T cell; FIG. 9)	ability of CAR T cells to accumulate intratumorally (CD19 CAR T cell; tumor-specific CD19 CAR T cells in combination with ZAA, CD19-bearing tumor cells)	antitumor actions, dependence on the immune system [2]	accumulation of P14 CD8 T cells responding to LCMV in the SI (P14 CD8 T cells; day 7 of infection, compared to the control group (vehicle))	SI TRM (P14 CD8 T cells; day 21 after LCMV infection)	accumulation of memory T cells in the spleen (P14 CD8 T cells; day 21 after LCMV infection)
C=C(CCC12O[C@H](C(=O)O)[C@@](O)(C(=O)O)C(C(=O)O)(O1)[C@H](OC(=O)/C=C/[C@@H](C)C[C@@H](C)CC)[C@H]2O)[C@@H](OC(C)=O)[C@H](C)Cc1ccccc1 (stereo partly shown) [ZAA, zaragozic acid A]	CD8-dependent	improved	reduced	greater control	synergizes	effectively	safely	synergizes	increase	depend on the immune system			
CC[C@H](C)C(=O)O[C@H]1C[C@@H](C)C=C2C=C[C@H](C)[C@H](CC[C@@H]3C[C@@H](O)CC(=O)O3)[C@H]21 [lovastatin]											impaired	sustained loss	impaired accumulation
